According to patent US20080207708A1, “Oxazole and Thiazole Compounds and Their Use in the Treatment of Pge2 Mediated Disorders” (GLAXO GROUP LIMITED, priority 2005, published 2008):

The molecules below were run against T1, EP1 receptors (Homo sapiens, UniProt P34995) (assay: Binding assay for the human prostanoid EP1 receptor (competition with [3H]-PGE2)). Details: [3H]-PGE2 competition; averages of a number of experiments; read-out: pIC50 value, binding assay for the human prostanoid EP1 receptor (converted).
T1 sequence (P34995 1-402): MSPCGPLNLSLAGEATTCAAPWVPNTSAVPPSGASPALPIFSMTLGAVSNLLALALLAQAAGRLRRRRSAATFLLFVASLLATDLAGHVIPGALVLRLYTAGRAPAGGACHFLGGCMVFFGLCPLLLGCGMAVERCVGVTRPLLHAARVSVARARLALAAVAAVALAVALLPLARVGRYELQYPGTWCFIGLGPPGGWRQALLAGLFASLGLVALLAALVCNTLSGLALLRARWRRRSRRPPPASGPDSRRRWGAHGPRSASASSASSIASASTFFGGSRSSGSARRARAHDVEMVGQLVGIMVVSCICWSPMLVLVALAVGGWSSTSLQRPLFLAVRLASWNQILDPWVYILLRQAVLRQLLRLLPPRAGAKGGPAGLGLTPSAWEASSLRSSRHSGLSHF
Design: expressed in transfected cells; host or cells: CHO-K1 cells, membrane fraction
Protocol: Competition assay using [^3H]-PGE2.
Compound potencies are determined using a radioligand binding assay. In this assay compound potencies are determined from their ability to compete with tritiated prostaglandin E2 ([^3H]-PGE2) for binding to the human EP1 receptor.
This assay utilises Chinese hamster ovary-K1 (CHO-K1) cells into which a stable vector containing the EP1 cDNA has previously been transfected. Cells are cultured in suitable flasks containing culture medium such as DMEM:F-12 supplemented with 10% v/v foetal calf serum, 2 mM L-glutamine, 0.25 mg/ml geneticin, 10 μg/ml puromycin and 10 μM indomethacin.
Cells are detached from the culture flasks by incubation in calcium and magnesium free phosphate buffered saline containing 1 mM disodium ethylenediaminetetraacetic acid (Na2EDTA) and 10 μM indomethacin for 5 min. The cells are isolated by centrifugation at 250×g for 5mins and suspended in an ice cold buffer such as 50 mM Tris, 1 mM Na2EDTA, 140 mM NaCl, 10 μM indomethacin (pH 7.4). The cells are homogenised using a Polytron tissue disrupter (2×10 s burst at full setting), centrifuged at 48,000×g for 20mins and the pellet containing the membrane fraction is washed (optional) three times by suspension and centrifugation at 48,000×g for 20mins. The final membrane pellet is suspended in an assay buffer such as 10 mM 2-[N-morpholino]ethanesulphonic acid, 1 mM Na2EDTA, 10 mM MgCl2 (pH 6). Aliquots are frozen at […] until required.
For the binding assay the cell membranes, competing compounds and [^3H]-PGE2 (3 nM final assay concentration) are incubated in a final volume of 100 μl for 30 min at 30° C. All reagents are prepared in assay buffer. Reactions are terminated by rapid vacuum filtration over GF/B filters using a Brandell cell harvester. The filters are washed with ice cold assay buffer, dried and the radioactivity retained on the filters is measured by liquid scintillation counting in Packard TopCount scintillation counter.
The data are analysed using non linear curve fitting techniques to determine the concentration of compound producing 50% inhibition of specific binding (IC50).

Row | SMILES | IC50 [nM]
1 | O=C(O)c1csc(Cc2cc(C(F)(F)F)ccc2OCc2ccccc2Cl)n1 [Example 30, Sodium 2-{[2-{[(2-chlorophenyl)methyl]oxy}-5-(trifluoromethyl)phenyl]methyl}-1,3-thiazole-4-carboxylate] | ≤ 31.6
2 | O=C(O)c1csc(Cc2cc(C(F)(F)F)ccc2OCc2ccc(Br)cc2)n1 [Example 31, Sodium 2-{[2-{[(4-bromophenyl)methyl]oxy}-5-(trifluoromethyl)phenyl]methyl}-1,3-thiazole-4-carboxylate] | ≤ 31.6
3 | O=C(O)c1csc(Cc2cc(C(F)(F)F)ccc2OCc2ccc(Cl)cc2F)n1 [Example 32, Sodium 2-{[2-{[(4-chloro-2-fluorophenyl)methyl]oxy}-5-(trifluoromethyl)phenyl]methyl}-1,3-thiazole-4-carboxylate] | ≤ 31.6
4 | O=C(O)c1csc(Cc2cc(C(F)(F)F)ccc2OCc2ccc(F)cc2Cl)n1 [Example 33, Sodium 2-{[2-{[(2-chloro-4-fluorophenyl)methyl]oxy}-5-(trifluoromethyl)phenyl]methyl}-1,3-thiazole-4-carboxylate] | ≤ 31.6
5 | O=C(O)c1csc(Cc2cc(C(F)(F)F)ccc2OCc2cccc(F)c2F)n1 [Example 34, Sodium 2-{[2-{[(2,3-difluorophenyl)methyl]oxy}-5-(trifluoromethyl)phenyl]methyl}-1,3-thiazole-4-carboxylate] | ≤ 31.6
6 | O=C(O)c1csc(Cc2cc(C(F)(F)F)ccc2OCc2ccc(F)c(F)c2F)n1 [Example 35, Sodium 2-{[5-(trifluoromethyl)-2-{[(2,3,4-trifluorophenyl)methyl]oxy}phenyl)methyl]-1,3-thiazole-4-carboxylate] | ≤ 1000
7 | O=C(O)c1csc(Cc2cc(C(F)(F)F)ccc2OCc2cc(F)c(F)cc2F)n1 [Example 36, Sodium 2-[(5-(trifluoromethyl)-2-{[(2,4,5-trifluorphenyl)methyl]oxy}phenyl)methyl]-1,3-thiazole-4-carboxylate] | ≤ 31.6
8 | CCCOc1ccc(C(F)(F)F)cc1Cc1nc(C(=O)O)cs1 [Example 37, Sodium 2-{[2-(propyloxy)-5-(trifluoromethyl)phenyl]methyl}-1,3-thiazole-4-carboxylate] | ≤ 31.6
9 | CCCCOc1ccc(C(F)(F)F)cc1Cc1nc(C(=O)O)cs1 [Example 38, Sodium 2-{[2-(butyloxy)-5-(trifluoromethyl)phenyl]methyl}-1,3-thiazole-4-carboxylate] | ≤ 1000
10 | O=C(O)c1csc(Cc2cc(C(F)(F)F)ccc2OCC2CC2)n1 [Example 39, Sodium 2-{[2-[(cyclopropylmethyl)oxy]-5-(trifluoromethyl)phenyl]methyl}-1,3-thiazole-4-carboxylate] | ≤ 31.6
11 | CCCCCOc1ccc(C(F)(F)F)cc1Cc1nc(C(=O)O)cs1 [Example 40, Sodium 2-{[2-(pentyloxy)-5-(trifluoromethyl)phenyl]methyl}-1,3-thiazole-4-carboxylate] | ≤ 1000
12 | CC(C)CCOc1ccc(C(F)(F)F)cc1Cc1nc(C(=O)O)cs1 [Example 41, Sodium 2-{[2-[(3-methylbutyl)oxy]-5-(trifluoromethyl)phenyl]methyl}-1,3-thiazole-4-carboxylate] | ≤ 31.6
13 | O=C(O)c1csc(Cc2cc(C(F)(F)F)ccc2OCC2CCCCC2)n1 [Example 42, Sodium 2-{[2-[(cyclohexylmethyl)oxy]-5-(trifluoromethyl)phenyl]methyl}-1,3-thiazole-4-carboxylate] | ≤ 1000
14 | O=C(O)c1csc(Cc2cc(C(F)(F)F)ccc2OCC2CCC2)n1 [Example 43, Sodium 2-{[2-[(cyclobutylmethyl)oxy]-5-(trifluoromethyl)phenyl]methyl}-1,3-thiazole-4-carboxylate] | ≤ 31.6
15 | CC(C)COc1ccc(C(F)(F)F)cc1Cc1nc(C(=O)O)cs1 [Example 44, Sodium 2-{[2-[(2-methylpropyl)oxy]-5-(trifluoromethyl)phenyl]methyl}-1,3-thiazole-4-carboxylate] | ≤ 31.6
16 | O=C(O)c1csc(Cc2cc(C(F)(F)F)ccc2OCC2CCCC2)n1 [Example 45, Sodium 2-{[2-[(cyclopentylmethyl)oxy]-5-(trifluoromethyl)phenyl]methyl}-1,3-thiazole-4-carboxylate] | ≤ 31.6
17 | O=C(O)c1csc(Cc2cc(Br)ccc2OCc2ccccc2F)n1 [Example 51, Sodium 2-[(5-bromo-2-{[(2-fluorophenyl)methyl]oxy}phenyl)methyl]-1,3-thiazole-4-carboxylate] | ≤ 31.6
18 | O=C(O)c1csc(Cc2cc(Br)ccc2OCc2ccc(F)cc2)n1 [Example 52, Sodium 2-[(5-bromo-2-{[(4-fluorophenyl)methyl]oxy}phenyl)methyl]-1,3-thiazole-4-carboxylate] | ≤ 31.6
19 | O=C(O)c1csc(Cc2cc(Br)ccc2OCc2ccc(F)cc2F)n1 [Example 53, Sodium 2-[(5-bromo-2-{[(2,4-difluorophenyl)methyl]oxy}phenyl)methyl]-1,3-thiazole-4-carboxylate] | ≤ 31.6
20 | O=C(O)c1csc(Cc2cc(Br)ccc2OCc2ccc(Br)cc2)n1 [Example 54, Sodium 2-[(5-bromo-2-{[(4-bromophenyl)methyl]oxy}phenyl)methyl]-1,3-thiazole-4-carboxylate] | ≤ 31.6

Next, values leading:

Row | IC50 [nM] | SMILES
21 | ≤ 1000 | O=C(O)c1csc(Cc2cc(Br)ccc2OCc2c(F)cc(F)cc2F)n1 [Example 55, Sodium 2-[(5-bromo-2-{[(2,4,6-trifluorophenyl)methyl]oxy}phenyl)methyl]-1,3-thiazole-4-carboxylate]
22 | ≤ 31.6 | O=C(O)c1csc(Cc2cc(Br)ccc2OCc2ccc(Cl)cc2)n1 [Example 56, Sodium 2-[(5-bromo-2-{[(4-chlorophenyl)methyl]oxy}phenyl)methyl]-1,3-thiazole-4-carboxylate]
23 | ≤ 31.6 | O=C(O)c1csc(Cc2cc(Br)ccc2OCc2ccccc2)n1 [Example 57, Sodium 2-({5-bromo-2-[(phenylmethyl)oxy]phenyl}methyl)-1,3-thiazole-4-carboxylate]
24 | ≤ 31.6 | O=C(O)c1csc(Cc2cc(Br)ccc2OCc2cc(F)c(F)cc2F)n1 [Example 58, Sodium 2-[(5-bromo-2-{[(2,4,5-trifluorophenyl)methyl]oxy}phenyl)methyl]-1,3-thiazole-4-carboxylate]
25 | ≤ 31.6 | O=C(O)c1csc(Cc2cc(Br)ccc2OCc2c(F)ccc(F)c2F)n1 [Example 59, Sodium 2-[(5-bromo-2-{[(2,3,6-trifluorophenyl)methyl]oxy}phenyl)methyl]-1,3-thiazole-4-carboxylate]
26 | ≤ 31.6 | O=C(O)c1csc(Cc2cc(Br)ccc2OCc2ccc(Cl)cc2F)n1 [Example 60, Sodium 2-[(5-bromo-2-{[(4-chloro-2-fluorophenyl)methyl]oxy}phenyl)methyl]-1,3-thiazole-4-carboxylate]
27 | ≤ 31.6 | O=C(O)c1csc(Cc2cc(Br)ccc2OCc2ccc(F)cc2Cl)n1 [Example 61, Sodium 2-[(5-bromo-2-{[(2-chloro-4-fluorophenyl)methyl]oxy}phenyl)methyl]-1,3-thiazole-4-carboxylate]
28 | ≤ 1000 | O=C(O)Cc1csc(-c2cc(Cl)ccc2OCc2ccccc2F)n1 [Example 62, Sodium [2-(5-chloro-2-{[(2-fluorophenyl)methyl]oxy}phenyl)-1,3-thiazol-4-yl]acetate]
29 | ≤ 1000 | O=C(O)Cc1csc(-c2cc(Cl)ccc2OCc2ccc(F)cc2F)n1 [Example 63, Sodium [2-(5-chloro-2-{[(2,4-difluorophenyl)methyl]oxy}phenyl)-1,3-thiazol-4-yl]acetate]
30 | ≤ 1000 | O=C(O)Cc1csc(-c2cc(Cl)ccc2OCc2c(F)cc(F)cc2F)n1 [Example 64, Sodium [2-(5-chloro-2-{[(2,4,6-trifluorophenyl)methyl]oxy}phenyl)-1,3-thiazol-4-yl]acetate]
31 | ≤ 31.6 | O=C(O)Cc1csc(-c2cc(Cl)ccc2OCc2ccc(Cl)cc2F)n1 [Example 65, Sodium [2-(5-chloro-2-{[(4-chloro-2-fluorophenyl)methyl]oxy}phenyl)-1,3-thiazol-4-yl]acetate]
